According to US20020115724A1, “Methods and agents for inhibiting protein aging” (priority 1985, published 2002):

Experiments:
gelatin (collagen) = test: Protein trapping: radioiodinated albumin bound to gelatin (collagen) agarose beads with glucose-6-phosphate; assay type: biochemical; settings: agent 200 mN, 400 mN glucose-6-phosphate, two weeks, 37° C.
Description: To more precisely measure the effect of the agents on the inhibition of protein crosslinking, an assay system was devised to measure the extent of in vitro binding of a soluble protein to an insoluble protein. This assay system mimics the events which occur in tissues in which serum proteins become bound to proteins in extravascular matrix and which lead to accumulation of protein and narrowing of vessel lumina in several other tissues. These events in vivo give rise to kidney disease and atherosclerotic disease, and lead to the pathologies associated with diabetes and aging.
To measure protein trapping (i.e., binding or accumulation), gelatin (collagen) was coupled to activated agarose beads (Affigel 10, Bio-Red Laboratories) by routine methods. After coupling, all remaining active sites on the beads were quenched by reaction with glycine ethyl ester.
The beads were incubated for two weeks with bovine serum albumin and 400 mN glucose-6-phosphate, a more reactive form of glucose which forms early glycosylation products with proteins more rapidly than does glucose. […] The bovine serum albumin was radioiodinated so that the amount which became bound to the beads could be measured. […]
After a two-week incubation of the reaction mixtures at 37° C., the beads were washed extensively with chaotropic agents and the covalently bound radioactivity was determined. […]

bovine serum albumin = test: Formation of fluorescent advanced glycosylation end products in albumin incubated with glucose; assay type: biochemical; settings: 200 mM agent, 6 mg/mL BSA, 200 mM glucose, 37° C., two-week incubation, vs control
Experimental: To measure the ability of certain of the agents of the present invention to inhibit the production of advanced glycosylated end products in vitro, albumin and glucose were incubated together for two weeks in the presence of several test agents. Samples were taken at regular intervals for analysis. Advanced glycosylation end products were measured as appearance of fluorescent compounds, and early glycosylation products were measured by incorporation of radiolabeled glucose into albumin. Reaction conditions were as follows. […]
After the incubation periods, samples were treated as follows. After dialysis to remove all unbound glucose, the amount of protein present was measured with a standard dye-binding assay. The amount of glucose which became bound to the albumin, a measure of early glycosylation products, was determined by precipitating albumin with trichloroacetic acid and measuring the radioactivity of the bound glucose using scintillation counting.
The results of this experiment are expressed graphically in FIG. 1. For each sample, incorporation of radiolabeled glucose is indicated by the solid portion of the bar, and fluorescence is indicated in the open portion of the bar. All values are expressed as per milligram of albumin. […]

rats = settings: subcutaneously, rats; cited from earlier work
mice = settings: subcutaneously; cited from earlier work
[1] = system: demineralized bone matrix particles; test: Bone differentiation of AGE-modified demineralized bone matrix implanted in rats; assay type: in vivo, rat; settings: matrix incubated with glycolaldehyde
Experimental: In order to assess the possible role of hyperglycemia-induced matrix modifications in this process, demineralized bone matrix particles from 35 week old normal Long-Evans rats were prepared. Matrix is incubated in phosphate buffered saline alone (PBS), PBS containing various sugar precursors of AGE (PBS−G), and PBS with sugars plus the AGE-inhibitor aminoguanidine (PBS−G+AG). After incubation, the matrix is washed and implanted subcutaneously in normal rats. Twelve days after implantation, ^45CaCl2 is injected to determine implant mineralization, and alkaline phosphatase activity is measured to assess osteoblast function. Duplicate specimens are fixed, embedded and stained for histologic evaluation.

NCCCC[C@H](N)C(=O)O [Lysine, lysine]
amount of protein trapping (radiolabeled albumin bound to collagen beads) (gelatin (collagen)): reduced the amount of protein trapping to an extent similar to that of aminoguanidine | formation of fluorescent compounds (advanced glycosylation end products) (bovine serum albumin): appeared to cause an increase in fluorescent compound formation

N=C(N)NN [aminoguanidine base, aminoguanidine]
LD50 (rats): 1258 mg/kg | LD50 (mice): 963 mg/kg

O=CCO [glycolaldehyde, reference compound]
matrix AGE content (by specific fluorescence), increase [1]: over twofold | inhibition of bone differentiation (45CaCl2 uptake, alk phos, histology) ([1]; implanted subcutaneously, 12 days): more than 90%
